Data from patent publication US8173649B2, “Glucokinase activator” (Kyorin Pharmaceutical Co., Ltd., priority 2006, dated 2012).
Blank lines part the entries; values can stand above or below the compound they belong to.

Key:
ICR mice = experiment: Hypoglycemic activity test; type: in vivo; details: statement in words in the description
Experimental: Using male 7- to 9-week-old ICR mice (Charles River Laboratories Japan), the effect of each test compound on the blood glucose levels was observed. Specifically, each compound was dissolved in a 60:40 mixture of Gelucire44/14 (Gatefosse) and PEG400 and was orally administered to the animals after a 2-hour fasting period (30 mg/kg, 10 mL/kg). Using a tube coated with dipotassium ethylenediamine tetraacetate, blood samples were collected from the tail vein immediately before administration (Pre-value), and 0.5, 2 and 4 hours after administration. The blood samples were centrifuged (4° C., 3,600 g, 3 min) to obtain plasma samples.
Each sample was diluted 5-fold with physiological saline and the blood glucose level was measured using glucose CII-test Wako (Wako Pure Chemical Industries). 10 μL each of one of the samples, physiological saline and a 100 mg/dL standard glucose solution (200 mg/dL standard glucose solution diluted two-fold with physiological saline) were placed in each well of a 96-well flat plate. 150 μL of a color-forming solution was added to each well and the plate was left at 37° C. for 5 min to allow the solution to develop color. Using a Lucy2 luminescence reader (Aloka), the measurements were taken at OD=492 nm. The decrease in the sigma glucose (mean decrease in the glucose levels at each blood collection point relative to the Pre-value) was determined from the decrease in the glucose level at each blood collection point relative to the Pre-value.

[1] = In vivo pharmacokinetics test (oral bioavailability); set-up: species or system mice; details: male, ICR, mouse, plasma, 2 μmol/kg
Experimental: Using male 6-week-old ICR mice (Charles River Laboratories Japan), the oral bioavailability of each test compound was evaluated. Specifically, each test compound was dissolved in dimethylsulfoxide (DMSO, Sigma) and the solution was added to a 1/15 M aqueous solution of sodium dihydrogen phosphate (Wako Pure Chemical Industries) to a concentration of 200 μM. DMSO was added to a final concentration of 30%. The resulting solution was administered to animals. As an intravenous injection group, a group of ICR mice, fasted overnight, were injected in their tail veins with the test compound solution (1 μmol/kg, 5 mL/kg). 5, 15 and 30 minutes after and 1, 2, 4, 8 and 24 hours after the intravenous administration, blood samples were collected from the eyeground of each animal using a heparin-coated capillary tube. […] 10 μL of the separated plasma was diluted with 100 μL of physiological saline and 10 μL of dimethylsulfoxide (sigma) and analyzed by a liquid chromatography-equipped triple quadrupole mass spectrometer (API-3000, Applied Biosystems) for the plasma concentration of unchanged product. The area under the plasma concentration-time curve (AUC) was determined by the trapezoidal method. The bioavailability of a test compound was determined by dividing the average AUC of the oral administration group corrected for the dose by the average AUC of the intravenous administration group.

[2] = In vitro liver microsome metabolic stability test, Method 1, human; type: in vitro ADME; details: microsomes
Experimental: (§1) In a glass test tube, each test compound was incubated with a solution containing liver microsomes of human (Xenotech) or murine (originally prepared from male 7-week-old ICR mice; Charles River Laboratories Japan) origin at 37° C. for 5 min to evaluate the metabolic stability of the compound. The incubation mixture contained 100 mM potassium phosphate buffer (pH 7.4, Wako Pure Chemical Industries), 3 mM MgCl2 (Wako Pure Chemical Industries), 5 mM glucose-6-phosphate (Roche), 1 mM EDTA (Tokyo Chemical Industry), 1 I.U. glucose 6-phosphate dehydrogenase (Roche) and 1 mg/mL liver microsome. A test compound was dissolved in DMSO and the solution was added to the reaction mixture to a final concentration of 1 μM. The metabolic process was initiated by the addition of an NADPH (Roche) solution to a final concentration of 1 mM and was terminated after 5 min by the addition of an equal volume of acetonitrile (Fischer). After termination of the process, the supernatant was separated by centrifugation and analyzed by a liquid chromatography-equipped mass spectrometer (SHIMADZU 2010A, Shimadzu) for the concentration of unchanged product.

[3] = In vitro liver microsome metabolic stability test, Method 1, murine; type: in vitro ADME, mice; details: mouse, microsomes
Experimental: as §1

in vitro = details: microsomes, pH 7.4
Experimental: In a glass test tube, each test compound was incubated with a solution containing liver microsomes of human (Xenotech) or murine (originally prepared from male 7-week-old ICR mice; Charles River Laboratories Japan) origin at 37° C. for 25 min to evaluate the metabolic stability of the compound. The incubation mixture contained 100 mM potassium phosphate buffer (pH 7.4, Wako Pure Chemical Industries), 3 mM MgCl2 (Wako Pure Chemical Industries), 5 mM glucose-6-phosphate (Roche), 1 mM EDTA (Tokyo Chemical Industry), 1 I.U. glucose 6-phosphate dehydrogenase (Roche) and 0.2 mg/mL liver microsome. A test compound was dissolved in DMSO and the solution was added to the reaction mixture to a final concentration of 1 μM. The metabolic process was initiated by the addition of an NADPH (Roche) solution to a final concentration of 1 mM and was terminated after 25 min by the addition of an equal volume of acetonitrile (Fischer). After termination of the process, the supernatant was separated by centrifugation and analyzed by a liquid chromatography-equipped mass spectrometer (SHIMADZU 2010A, Shimadzu) for the concentration of unchanged product.

Compound: CS(=O)(=O)c1ccc(C(CC2CC(F)C(F)C2)C(=O)Nc2nccs2)cc1 (single isomer, unassigned; (+)) [compound 8, (+)-3-[(1β,3α,4α)-3,4-difluorocyclopentyl]-2-(4-(methylsulfonyl)phenyl)-N-(thiazole-2-yl)propionamide]
hypoglycemic activity (ICR mice): do not exhibit high hypoglycemic activity

bioavailability [1]: ≥ 50% | microsomal CLint at 1 μM ([2]; pH 7.4): ≤ 60 µL/min/mg | microsomal CLint at 1 μM ([3]; male, ICR, pH 7.4): ≤ 60 µL/min/mg | microsomal CLint at 1 μM (in vitro; human): ≤ 50 µL/min/mg | microsomal CLint at 1 μM (in vitro; male, ICR, mouse): ≤ 50 µL/min/mg
Compound: CS(=O)(=O)c1ccc(C(C[C@H]2C[C@@H](F)[C@@H](F)C2)C(=O)Nc2nccs2)cc1 (single isomer, unassigned; (-)) [Compound No. 1, (−)-3-[(1α,3α,4α)-3,4-difluorocyclopentyl]-2-(4-(methylsulfonyl)phenyl)-N-(thiazole-2-yl)propionamide]

metabolic clearance [2]: ≤ 0.06 mL/min/mg protein | metabolic clearance [3]: ≤ 0.06 mL/min/mg protein
Compound: Cn1ccc(NC(=O)C(CC2CC(F)C(F)C2)c2ccc(S(C)(=O)=O)cc2)n1 (single isomer, unassigned; (-)) [compound 3, (−)-3-[(1α,3α,4α)-3,4-difluorocyclopentyl]-2-(4-(methylsulfonyl)phenyl)-N-(1-methylpyrazole-3-yl)propionamide]

Compound: CS(=O)(=O)c1ccc(C(CC2CC(F)C(F)C2)C(=O)Nc2nccs2)cc1 (single isomer, unassigned; (-)) [compound 7, (−)-3-[(1β,3α,4α)-3,4-difluorocyclopentyl]-2-(4-(methylsulfonyl)phenyl)-N-(thiazole-2-yl)propionamide]
hypoglycemic activity (ICR mice): do not exhibit high hypoglycemic activity

Compound: CS(=O)(=O)c1ccc([C@H](CC2CC(F)C(F)C2)C(=O)Nc2nccs2)cc1 (single isomer, unassigned; (+)) [compound 2, (+)-3-[(1α,3α,4α)-3,4-difluorocyclopentyl]-2-(4-(methylsulfonyl)phenyl)-N-(thiazole-2-yl)propionamide]
hypoglycemic activity (ICR mice): do not exhibit high hypoglycemic activity
